This note sets out measurements from ChEMBL document CHEMBL1139142, “Discovery of 4-amino-5,6-biaryl-furo[2,3-d]pyrimidines as inhibitors of Lck: development of an expedient and divergent synthetic route and preliminary SAR” (Bioorg Med Chem Lett, 2007).

For data set [1], the system named is T-cell. Briefly: Inhibition of T cell activation in human mixed lymphocyte reaction. The class given is functional, cell-based.
Data set [2] has as its target Tyrosine-protein kinase Lck (Homo sapiens, UniProt P06239). Description: Inhibition of Lck.
In a further data set the target is Activated CDC42 kinase 1 (Homo sapiens, UniProt Q07912). Briefly: Inhibition of Ack1.
In data set [3] the test system is T-cell. Briefly: Inhibition of anti-CD3/CD28-induced IL2 secretion in human T cells. Type of data set: functional, cell-based.
A further data set addresses Angiopoietin-1 receptor (Homo sapiens, UniProt Q02763). Description: Inhibition of Tie2.
Data set [4] is described as follows: Inhibition of IGFR. More on the design: species or system Homo sapiens.
Data set [5] addresses Proto-oncogene tyrosine-protein kinase Src (Homo sapiens, UniProt P12931). Briefly: Inhibition of Src.
The target of data set [6] is Epidermal growth factor receptor (Homo sapiens, UniProt P00533).
The target of data set [7] is T1, Tyrosine-protein kinase ZAP-70 (Homo sapiens, UniProt P43403).
T1 sequence (P43403 whole entry): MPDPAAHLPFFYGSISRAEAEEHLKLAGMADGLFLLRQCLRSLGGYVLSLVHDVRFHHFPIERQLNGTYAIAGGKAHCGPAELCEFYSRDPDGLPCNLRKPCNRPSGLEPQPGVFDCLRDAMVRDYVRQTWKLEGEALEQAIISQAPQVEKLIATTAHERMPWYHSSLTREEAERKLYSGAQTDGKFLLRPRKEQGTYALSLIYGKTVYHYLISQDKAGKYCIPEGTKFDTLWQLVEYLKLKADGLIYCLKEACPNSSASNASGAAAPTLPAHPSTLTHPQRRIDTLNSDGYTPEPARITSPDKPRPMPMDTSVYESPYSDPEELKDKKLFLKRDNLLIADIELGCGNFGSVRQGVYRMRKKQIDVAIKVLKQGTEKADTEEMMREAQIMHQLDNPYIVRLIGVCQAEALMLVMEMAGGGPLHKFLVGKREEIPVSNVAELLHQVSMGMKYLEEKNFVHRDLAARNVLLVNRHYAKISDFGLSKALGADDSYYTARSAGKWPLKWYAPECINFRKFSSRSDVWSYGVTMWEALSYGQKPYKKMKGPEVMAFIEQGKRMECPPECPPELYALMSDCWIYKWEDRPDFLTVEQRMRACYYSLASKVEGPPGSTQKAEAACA
Description: Inhibition of ZAP70.

Data set [8] deals with Vascular endothelial growth factor receptor 2 (Homo sapiens, UniProt P35968). Briefly: Inhibition of KDR.
Data set [9] addresses T2, Tyrosine-protein kinase JAK3 (Homo sapiens, UniProt P52333).
T2 sequence (P52333 whole entry): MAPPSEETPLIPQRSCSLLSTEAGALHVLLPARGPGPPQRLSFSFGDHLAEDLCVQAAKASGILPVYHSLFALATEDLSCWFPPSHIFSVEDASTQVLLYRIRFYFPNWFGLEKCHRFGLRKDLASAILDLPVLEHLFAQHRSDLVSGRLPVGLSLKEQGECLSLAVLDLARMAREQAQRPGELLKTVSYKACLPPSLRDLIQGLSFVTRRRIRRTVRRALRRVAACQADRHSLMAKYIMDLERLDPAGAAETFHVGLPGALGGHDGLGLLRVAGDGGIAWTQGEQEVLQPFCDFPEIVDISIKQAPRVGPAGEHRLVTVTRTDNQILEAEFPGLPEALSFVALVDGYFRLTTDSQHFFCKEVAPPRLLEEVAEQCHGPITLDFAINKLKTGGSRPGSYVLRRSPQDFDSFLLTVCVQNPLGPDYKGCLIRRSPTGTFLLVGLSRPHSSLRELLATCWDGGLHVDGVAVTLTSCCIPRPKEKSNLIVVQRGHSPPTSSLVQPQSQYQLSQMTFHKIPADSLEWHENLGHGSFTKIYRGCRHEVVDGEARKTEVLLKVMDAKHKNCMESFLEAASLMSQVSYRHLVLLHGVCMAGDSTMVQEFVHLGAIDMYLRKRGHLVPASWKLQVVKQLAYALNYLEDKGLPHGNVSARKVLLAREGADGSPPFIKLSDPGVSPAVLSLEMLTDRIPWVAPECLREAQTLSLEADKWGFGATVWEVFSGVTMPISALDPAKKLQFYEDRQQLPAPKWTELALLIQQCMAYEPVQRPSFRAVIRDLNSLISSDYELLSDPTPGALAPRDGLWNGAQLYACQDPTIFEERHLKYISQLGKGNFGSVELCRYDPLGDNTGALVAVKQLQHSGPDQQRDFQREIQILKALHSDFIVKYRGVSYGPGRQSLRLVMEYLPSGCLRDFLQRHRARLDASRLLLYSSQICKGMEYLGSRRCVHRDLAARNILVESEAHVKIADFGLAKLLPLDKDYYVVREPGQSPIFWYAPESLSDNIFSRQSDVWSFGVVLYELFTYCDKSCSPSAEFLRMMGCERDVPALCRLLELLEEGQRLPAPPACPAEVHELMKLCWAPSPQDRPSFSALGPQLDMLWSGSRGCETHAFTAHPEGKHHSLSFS
Briefly: Inhibition of Jak3.

Data set [10] addresses Tyrosine-protein kinase JAK2 (Homo sapiens, UniProt O60674). Description: Inhibition of Jak2.
A short description of data set [11]: Cmax in Sprague-Dawley rat at 5 mg/kg, po. Type of data set: ADME, organism-based. More on the design: dose 5 mg/kg, route oral. Particulars: in vivo.
The nature of data set [12]: Oral bioavailability in Sprague-Dawley rat at 5 mg/kg. The class given is ADME, organism-based. The note with it: in vivo.
Data set [13] is described as follows: Volume of distribution at steady state in Sprague-Dawley rat at 1 mg/kg, iv. The class given is ADME, organism-based. Set-up: dose 1 mg/kg, route intravenous. The note with it: in vivo, read-out: Vdss.
Data set [14] in a line: Clearance in Sprague-Dawley rat at 1 mg/kg, iv. Set-up: dose 1 mg/kg, route intravenous. The class given is ADME, organism-based. The note with it: in vivo.
Data set [15] in a line: AUC (0 to infinity) in Sprague-Dawley rat at 5 mg/kg, po. The class given is ADME, organism-based. Set-up: time infinity, dose 5 mg/kg, route oral. Particulars: plasma.
Data set [16] is described as follows: Half life in Sprague-Dawley rat at 1 mg/kg, iv. Type of data set: ADME, organism-based. More on the design: dose 1 mg/kg, route intravenous. Particulars: in vivo.

Chain of Tyrosine-protein kinase Lck (P06239 whole entry): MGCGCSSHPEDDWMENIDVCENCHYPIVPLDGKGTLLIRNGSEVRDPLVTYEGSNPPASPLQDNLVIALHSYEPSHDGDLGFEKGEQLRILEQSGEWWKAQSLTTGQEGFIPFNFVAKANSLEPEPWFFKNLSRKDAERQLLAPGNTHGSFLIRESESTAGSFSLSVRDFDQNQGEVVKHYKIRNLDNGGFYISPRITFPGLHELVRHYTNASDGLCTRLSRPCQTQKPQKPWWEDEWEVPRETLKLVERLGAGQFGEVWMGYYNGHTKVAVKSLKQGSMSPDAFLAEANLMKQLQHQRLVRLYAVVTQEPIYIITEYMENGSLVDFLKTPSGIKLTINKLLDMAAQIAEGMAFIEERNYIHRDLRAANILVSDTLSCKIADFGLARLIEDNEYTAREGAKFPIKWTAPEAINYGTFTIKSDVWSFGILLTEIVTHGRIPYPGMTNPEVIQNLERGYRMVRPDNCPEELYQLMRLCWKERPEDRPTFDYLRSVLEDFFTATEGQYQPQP
Chain of Activated CDC42 kinase 1 (Q07912 whole entry): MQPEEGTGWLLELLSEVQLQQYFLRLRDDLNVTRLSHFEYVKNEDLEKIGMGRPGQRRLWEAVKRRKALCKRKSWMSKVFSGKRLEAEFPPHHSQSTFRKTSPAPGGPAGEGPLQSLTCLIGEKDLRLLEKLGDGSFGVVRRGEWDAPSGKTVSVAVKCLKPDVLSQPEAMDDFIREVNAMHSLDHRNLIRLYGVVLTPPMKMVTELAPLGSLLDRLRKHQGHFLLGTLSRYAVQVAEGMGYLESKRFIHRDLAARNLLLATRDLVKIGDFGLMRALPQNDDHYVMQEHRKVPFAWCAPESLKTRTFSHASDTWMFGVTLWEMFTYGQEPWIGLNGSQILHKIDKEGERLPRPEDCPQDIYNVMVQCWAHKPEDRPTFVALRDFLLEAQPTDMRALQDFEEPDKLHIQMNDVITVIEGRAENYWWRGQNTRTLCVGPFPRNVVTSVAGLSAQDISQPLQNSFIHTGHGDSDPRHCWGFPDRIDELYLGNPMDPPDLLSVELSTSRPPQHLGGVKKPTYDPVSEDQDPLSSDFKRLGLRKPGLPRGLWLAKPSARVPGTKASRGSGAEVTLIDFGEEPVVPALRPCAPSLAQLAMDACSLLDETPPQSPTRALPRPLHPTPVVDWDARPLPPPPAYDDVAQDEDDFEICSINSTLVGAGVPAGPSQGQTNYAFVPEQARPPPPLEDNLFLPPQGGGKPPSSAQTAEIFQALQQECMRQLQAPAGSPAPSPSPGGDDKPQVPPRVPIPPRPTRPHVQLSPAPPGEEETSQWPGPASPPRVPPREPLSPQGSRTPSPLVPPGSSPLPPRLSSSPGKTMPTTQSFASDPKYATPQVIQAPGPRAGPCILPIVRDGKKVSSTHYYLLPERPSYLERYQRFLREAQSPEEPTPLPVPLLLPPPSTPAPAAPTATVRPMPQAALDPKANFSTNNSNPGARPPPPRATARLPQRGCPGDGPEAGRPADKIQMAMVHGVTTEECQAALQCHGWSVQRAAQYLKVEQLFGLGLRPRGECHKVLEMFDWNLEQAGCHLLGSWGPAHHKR
Chain of Proto-oncogene tyrosine-protein kinase Src (P12931 2-536 limits assumed): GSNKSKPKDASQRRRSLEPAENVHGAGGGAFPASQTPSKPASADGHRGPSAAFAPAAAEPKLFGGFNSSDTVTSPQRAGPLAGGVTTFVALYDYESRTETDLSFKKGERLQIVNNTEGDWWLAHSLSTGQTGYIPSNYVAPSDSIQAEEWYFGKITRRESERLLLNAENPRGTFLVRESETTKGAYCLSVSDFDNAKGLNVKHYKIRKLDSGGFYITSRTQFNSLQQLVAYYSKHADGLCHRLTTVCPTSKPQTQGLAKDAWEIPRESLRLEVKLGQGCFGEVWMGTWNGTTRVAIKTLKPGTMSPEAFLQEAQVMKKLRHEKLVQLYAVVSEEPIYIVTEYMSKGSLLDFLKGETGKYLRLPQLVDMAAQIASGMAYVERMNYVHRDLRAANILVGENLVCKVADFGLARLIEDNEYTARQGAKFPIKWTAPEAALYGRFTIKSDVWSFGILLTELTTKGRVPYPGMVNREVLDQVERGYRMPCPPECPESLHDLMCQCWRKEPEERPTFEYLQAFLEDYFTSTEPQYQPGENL
Chain of Angiopoietin-1 receptor (Q02763 whole entry): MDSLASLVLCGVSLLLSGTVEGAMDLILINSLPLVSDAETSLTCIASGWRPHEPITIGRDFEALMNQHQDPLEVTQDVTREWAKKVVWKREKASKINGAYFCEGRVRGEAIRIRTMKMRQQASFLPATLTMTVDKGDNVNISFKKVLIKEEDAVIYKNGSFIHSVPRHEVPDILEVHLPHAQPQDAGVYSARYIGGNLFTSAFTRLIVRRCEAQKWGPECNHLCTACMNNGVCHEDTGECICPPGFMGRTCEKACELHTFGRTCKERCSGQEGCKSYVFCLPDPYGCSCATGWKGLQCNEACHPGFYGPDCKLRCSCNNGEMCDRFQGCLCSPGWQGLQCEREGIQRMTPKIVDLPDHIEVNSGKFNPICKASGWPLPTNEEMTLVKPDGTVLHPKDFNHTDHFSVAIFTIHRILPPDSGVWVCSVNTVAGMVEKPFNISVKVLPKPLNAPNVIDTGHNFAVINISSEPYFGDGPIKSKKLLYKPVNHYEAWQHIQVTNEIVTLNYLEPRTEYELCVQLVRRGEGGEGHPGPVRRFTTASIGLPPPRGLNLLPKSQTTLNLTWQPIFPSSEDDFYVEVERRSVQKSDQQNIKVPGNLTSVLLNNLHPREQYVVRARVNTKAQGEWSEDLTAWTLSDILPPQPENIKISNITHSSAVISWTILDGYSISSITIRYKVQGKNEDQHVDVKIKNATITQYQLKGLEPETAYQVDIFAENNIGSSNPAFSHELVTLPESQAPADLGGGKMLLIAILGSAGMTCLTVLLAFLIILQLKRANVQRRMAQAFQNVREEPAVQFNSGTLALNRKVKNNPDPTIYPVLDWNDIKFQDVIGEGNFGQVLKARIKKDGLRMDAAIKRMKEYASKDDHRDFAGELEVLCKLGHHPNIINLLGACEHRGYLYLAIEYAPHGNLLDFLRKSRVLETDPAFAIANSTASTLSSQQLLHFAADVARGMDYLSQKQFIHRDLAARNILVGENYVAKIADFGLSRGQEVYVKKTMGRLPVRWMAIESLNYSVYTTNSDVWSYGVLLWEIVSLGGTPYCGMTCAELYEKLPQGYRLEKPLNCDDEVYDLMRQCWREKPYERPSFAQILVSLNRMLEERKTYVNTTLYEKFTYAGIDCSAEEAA
Chain of Vascular endothelial growth factor receptor 2 (P35968 whole entry): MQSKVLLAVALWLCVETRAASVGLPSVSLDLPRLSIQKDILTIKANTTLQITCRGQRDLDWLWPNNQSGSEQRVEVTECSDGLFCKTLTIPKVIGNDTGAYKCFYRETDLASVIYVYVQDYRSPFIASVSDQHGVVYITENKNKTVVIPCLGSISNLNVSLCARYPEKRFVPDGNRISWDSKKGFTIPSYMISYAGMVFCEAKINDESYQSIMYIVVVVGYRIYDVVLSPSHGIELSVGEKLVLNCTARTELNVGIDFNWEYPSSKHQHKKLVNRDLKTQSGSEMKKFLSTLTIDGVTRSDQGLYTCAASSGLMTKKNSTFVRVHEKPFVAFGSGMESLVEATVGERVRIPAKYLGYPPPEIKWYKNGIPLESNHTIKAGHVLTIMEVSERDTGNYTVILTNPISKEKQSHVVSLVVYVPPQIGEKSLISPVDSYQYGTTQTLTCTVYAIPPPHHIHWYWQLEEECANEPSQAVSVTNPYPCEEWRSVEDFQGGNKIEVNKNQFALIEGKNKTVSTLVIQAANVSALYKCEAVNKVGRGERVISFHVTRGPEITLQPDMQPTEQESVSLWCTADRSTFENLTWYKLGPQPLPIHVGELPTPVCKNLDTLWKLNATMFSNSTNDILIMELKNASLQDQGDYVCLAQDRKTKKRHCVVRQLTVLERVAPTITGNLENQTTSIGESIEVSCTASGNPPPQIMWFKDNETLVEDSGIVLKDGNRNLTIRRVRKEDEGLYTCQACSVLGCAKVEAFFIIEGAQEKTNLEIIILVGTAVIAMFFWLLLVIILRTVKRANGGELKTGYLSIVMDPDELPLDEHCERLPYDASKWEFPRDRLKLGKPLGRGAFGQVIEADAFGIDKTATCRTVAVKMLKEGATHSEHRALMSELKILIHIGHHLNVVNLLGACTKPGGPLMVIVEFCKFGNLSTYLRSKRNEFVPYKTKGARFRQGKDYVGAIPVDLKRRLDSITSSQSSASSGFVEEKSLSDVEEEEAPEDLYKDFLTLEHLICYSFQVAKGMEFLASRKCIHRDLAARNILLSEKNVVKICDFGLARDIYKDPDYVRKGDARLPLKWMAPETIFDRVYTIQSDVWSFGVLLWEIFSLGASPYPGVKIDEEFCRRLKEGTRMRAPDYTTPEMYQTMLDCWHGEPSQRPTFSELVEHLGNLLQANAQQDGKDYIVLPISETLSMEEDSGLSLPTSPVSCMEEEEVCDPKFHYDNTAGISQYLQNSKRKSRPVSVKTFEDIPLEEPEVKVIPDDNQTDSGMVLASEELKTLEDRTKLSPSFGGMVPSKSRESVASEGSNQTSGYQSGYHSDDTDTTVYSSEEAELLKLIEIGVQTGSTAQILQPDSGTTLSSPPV

What is called IC50 is the midpoint of a concentration-inhibition curve. Low readings indicate greater potency, high ones weaker potency. With `c1ccc(-c2c(-c3ccc(N4CCOCC4)cc3)oc3ncnc(NCCN4CCNCC4)c23)cc1`, the results for the IC50 (in the data set on T-cell [1]; in data set [2]; against Activated CDC42 kinase 1) were 227 nM, 11 nM and 17 nM, respectively.
Regarding `COc1cc(-c2oc3ncnc(NC[C@@H]4CCCO4)c3c2-c2ccccc2)ccc1OCCN1CCCCC1`, the IC50 with T-cell [1] was 825 nM; in [2], 8 nM; on Activated CDC42 kinase 1, 38 nM; in the data set on T-cell [3] it was 193 nM.
Regarding `c1ccc(CCNc2ncnc3oc(-c4ccc(OCCN5CCCC5)cc4)c(-c4ccccc4)c23)cc1`, the IC50 was found to be 1670 nM in the data set with T-cell [1], 5 nM in [2], 1 nM against Activated CDC42 kinase 1 and 5720 nM with T-cell [3].
For `CN1CCN(Cc2ccc(-c3oc4ncnc(NC[C@@H]5CCCO5)c4c3-c3ccccc3)cc2)CC1`, in that order: 337 nM, 6 nM, 7 nM and 293 nM.
`c1ccc(-c2oc3ncnc(NC[C@H]4CCCO4)c3c2-c2ccccc2)cc1`: the IC50 was 2130 nM in the data set with T-cell [1], 1210 nM in data set [2] and 523 nM against Activated CDC42 kinase 1.
`CN(C)CCOc1ccc(-c2oc3ncnc(NC[C@@H]4CCCO4)c3c2-c2ccccc2)cc1`: the IC50 was determined as 464 nM with T-cell [1], 6 nM in data set [2], 11 nM at Activated CDC42 kinase 1 and 119 nM with T-cell [3].
Regarding `c1ccc(-c2c(-c3ccc(OCCN4CCCC4)cc3)oc3ncnc(NCCC4CCNCC4)c23)cc1`, the IC50 with T-cell [1] was found to be 2450 nM; in [2], 14 nM; on Activated CDC42 kinase 1, 332 nM.
Consider `COc1cc(-c2oc3ncnc(NCCN4CCNCC4)c3c2-c2ccccc2)ccc1OCCN1CCCCC1`, for which the IC50 in the data set with T-cell [1] turned out to be 3220 nM; in [2], 22 nM; against Activated CDC42 kinase 1 it was 586 nM; in the data set with T-cell [3] it was 2630 nM.
For `CCN1CCN(C(=O)c2ccc(-c3oc4ncnc(NC[C@@H]5CCCO5)c4c3-c3ccccc3)cc2)CC1`, in that order: 437 nM, 11 nM, 13 nM and 2420 nM.
Turning to `c1ccc(-c2c(-c3ccc(CN4CCOCC4)cc3)oc3ncnc(NCCN4CCNCC4)c23)cc1`, the IC50 in the data set with T-cell [1] stood at 138 nM; in data set [2], 27 nM; against Activated CDC42 kinase 1, 91 nM.
The matching figures for `O=C(c1ccc(-c2oc3ncnc(NCCN4CCNCC4)c3c2-c2ccccc2)cc1)N1CCCCC1`: 121 nM, 22 nM and 85 nM.
With `CC(C)Nc1ncnc2oc(-c3ccc(OCCN4CCCC4)cc3)c(-c3ccccc3)c12`, the IC50 was 533 nM in the data set with T-cell [1]; greater than 8.33 µM at Angiopoietin-1 receptor; 1490 nM in [4]; 36 nM in data set [2]; 914 nM in data set [5]; 78 nM against Activated CDC42 kinase 1. The IC50 with T-cell [3] came out at 199 nM; in data set [6], 1030 nM; in data set [7] it was 3270 nM; in data set [8], 537 nM; in [9] it was 1430 nM; in data set [10] it was 4.89 µM.
Turning to `CN1CCOc2cc(-c3oc4ncnc(NCCN5CCNCC5)c4c3-c3ccccc3)ccc21`, the results for the IC50 (in the data set on T-cell [1]; in data set [2]; against Activated CDC42 kinase 1) were 3080 nM, 42 nM and 97 nM, respectively.
By Cmax is commonly meant the highest concentration seen after dosing. Usually bioavailability stands for dose-corrected exposure relative to a reference, in per cent. By clearance is commonly meant a measure of how efficiently the substance is removed, as volume per time. A high value points to a high capacity for elimination. In general, AUC(0-inf) refers to the area under the concentration-time curve extrapolated to infinity. Low readings indicate less exposure, high ones more exposure. In general, half-life refers to the time needed for the level to fall by half in the phase considered. As for `c1ccc(-c2oc3ncnc(NCCN4CCNCC4)c3c2-c2ccccc2)cc1`, the Cmax in data set [11] came out at 180 ng/mL. The same compound showed a bioavailability in data set [12] of 15%. Further, the IC50 with T-cell [1] was 1710 nM; against Activated CDC42 kinase 1, 181 nM; in the data set on T-cell [3] it was 690 nM. Moreover, in [13], the Vd worked out at 2.77 L/kg. This compound gave a clearance in [14] of 14.8 mL/min/kg. In addition, the total exposure AUC(0-inf) in data set [15] worked out at 1040 ng·h/mL. The half-life in [16] is 142 min.
Take `CC(C)(C)Nc1ncnc2oc(-c3ccc(OCCN4CCCC4)cc3)c(-c3ccccc3)c12`: the IC50 worked out at 2380 nM in the data set on T-cell [1], 83 nM in data set [2], 650 nM against Activated CDC42 kinase 1 and 3260 nM with T-cell [3].
`c1ccc(-c2c(-c3ccc(OCCN4CCCC4)cc3)oc3ncnc(NC[C@@H]4CCCO4)c23)cc1`: the IC50 in the data set on T-cell [1] turned out to be 670 nM; in data set [2], 11 nM; against Activated CDC42 kinase 1 it was 16 nM; with T-cell [3], 435 nM.
For `c1ccc(-c2oc3ncnc(NC[C@@H]4CCCO4)c3c2-c2ccccc2)cc1`, the IC50 with T-cell [1] was 8950 nM; in data set [2], 122 nM; against Activated CDC42 kinase 1, 24 nM; with T-cell [3], 2410 nM.
For `CN(C)CCOc1ccc(-c2oc3ncnc(NCCN4CCNCC4)c3c2-c2ccccc2)cc1`, in that order: 360 nM, 14 nM, 148 nM and 468 nM.
On to `c1ccc(-c2c(-c3ccc(OCCN4CCCC4)cc3)oc3ncnc(NCCN4CCNCC4)c23)cc1`, for which the IC50 with T-cell [1] is 227 nM; against Angiopoietin-1 receptor, greater than 25 µM; in data set [4] it was 3150 nM; in data set [2] it was 9 nM; in data set [5] it was 45 nM; on Activated CDC42 kinase 1, 98 nM. Further, the IC50 in the data set on T-cell [3] was 430 nM; in data set [6] it was 397 nM; in data set [7] it was 992 nM; in data set [8] it was 3100 nM; in [9] it was 960 nM; in [10], greater than 8.33 µM.
